Among the data in patent US7732604B2, “Triazolopyrazine derivatives” (Pfizer Inc., priority 2006, dated 2010) are Ki values, retold here.

Molecules are shown by their SMILES. Where a name gives a salt, the structure may show the parent alone.

This assay deals with T1, HGFR (Homo sapiens, UniProt P08581).
T1 construct: purchased Upstate 14-526
T1 sequence (P08581 974-1390 limits assumed): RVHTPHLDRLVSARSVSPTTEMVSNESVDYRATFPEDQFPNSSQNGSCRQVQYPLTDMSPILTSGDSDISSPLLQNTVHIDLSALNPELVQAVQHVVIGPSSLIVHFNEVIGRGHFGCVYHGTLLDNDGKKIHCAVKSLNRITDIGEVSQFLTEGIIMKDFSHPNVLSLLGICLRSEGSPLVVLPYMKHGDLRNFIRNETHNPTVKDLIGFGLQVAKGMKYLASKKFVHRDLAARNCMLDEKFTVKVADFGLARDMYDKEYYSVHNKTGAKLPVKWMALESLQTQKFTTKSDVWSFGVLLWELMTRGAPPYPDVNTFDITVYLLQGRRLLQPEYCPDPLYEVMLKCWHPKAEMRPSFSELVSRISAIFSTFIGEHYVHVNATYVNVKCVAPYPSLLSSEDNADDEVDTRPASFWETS
As to the kind of experiment: HGFR continuous-coupled spectrophotometric assay (tyrosine kinase activity on Met-2 substrate peptide). Format: biochemical. The settings on record: HGFR 50 nM, Met-2 peptide 0.5 mM, ATP 300 μM, 37° C., absorbance 340 nm; read-out: Ki.
One may read the Ki as a measure of affinity in units of concentration, obtained from inhibition or displacement. For `c1cnc2ccc(Cn3nnc4ncc(N5CCCC5)nc43)cc2c1` [Example 164, 6-[(6-pyrrolidin-1-yl-1H-[1,2,3]tri-azolo[4,5-b]pyra-zin-1-yl)meth-yl]quinoline], the inhibitory constant (Ki) stood at 14 nM.

Turning to `c1cnc2ccc(Cn3nnc4ncc(N5CCC5)nc43)cc2c1` [Example 165, 6-[(6-azetidin-1-yl-1H-[1,2,3]tri-azolo[4,5-b]pyra-zin-1-yl)meth-yl]quinoline], the Ki was 26 nM.

Consider `CC(C)Nc1cnc2nnn(Cc3ccc4ncccc4c3)c2n1` [Example 166, N-isopropyl-1-(quino-lin-6-yl-methyl)-1H-[1,2,3]tri-azolo[4,5-b]pyra-zin-6-amine], for which the inhibition constant Ki stood at 4 nM.

Consider `CC(C)(O)CNc1cnc2nnn(Cc3ccc4ncccc4c3)c2n1` [Example 167, 2-methyl-1-{[1-(quino-lin-6-ylmeth-yl)-1H-[1,2,3]tri-azolo[4,5-b]pyra-zin-6-yl]ami-no}propan-2-ol], for which the inhibitory constant (Ki) was determined as 13 nM.

Regarding `COCCOc1cnc2nnn(Cc3ccc4ncccc4c3)c2n1` [Example 169, 6-{[6-(2-methoxy-ethoxy)-1H-[1,2,3]tri-azolo[4,5-b]pyra-zin-1-yl]meth-yl}quinoline], the Ki is 26 nM.

Consider `Fc1cc2ncccc2cc1Cn1nnc2ncc(N3CC[C@@H](N4CCOCC4)C3)nc21` [Example 171, 7-fluoro-6-({6-[(3R)-3-morpho-lin-4-yl-pyrrolidin-1-yl]-1H-[1,2,3]tri-azolo[4,5-b]pyra-zin-1-yl}meth-yl)quinoline], for which the inhibitory constant (Ki) worked out at 10 nM.

For `CC(C)(O)CNc1cnc2nnn(Cc3cc4cccnc4cc3F)c2n1` [Example 172, 1-({1-[(7-fluoro-quinolin-6-yl)meth-yl]-1H-[1,2,3]tri-azolo[4,5-b]pyra-zin-6-yl}ami-no)-2-methyl-propan-2-ol], the Ki was 4 nM.

Regarding `C[C@H](O)CNc1cnc2nnn(Cc3cc4cccnc4cc3F)c2n1` [Example 173, (2)-1-({1-[(7-fluoro-quinolin-6-yl)meth-yl]-1H-[1,2,3]tri-azolo[4,5-b]pyra-zin-6-yl}ami-no)propan-2-ol], the Ki was 4 nM.

For `CC(O)CNc1cnc2nnn(Cc3ccc4ncccc4c3)c2n1` (stereo not shown) [Example 174, 1-{[1-(quinolin-6-yl-methyl)-1H-[1,2,3]tri-azolo[4,5-b]pyra-zin-6-yl]ami-no}propan-2-ol], the inhibition constant Ki is 7 nM.

For `CC(O)CNc1cnc2nnn(Cc3ccc4ncccc4c3)c2n1` (stereo not shown) [Example 175, 1-{[1-(quinolin-6-yl-methyl)-1H-[1,2,3]tri-azolo[4,5-b]pyra-zin-6-yl]ami-no}propan-2-ol], the inhibition constant Ki is 8 nM.

In the case of `NC(=O)C1CCN(c2cnc3nnn(Cc4ccc5ncccc5c4)c3n2)C1` (stereo not shown) [Example 176, 1-[1-(quinolin-6-yl-methyl)-1H-[1,2,3]tri-azolo[4,5-b]pyra-zin-6-yl]pyrro-lidine-3-carbox-amide], the inhibition constant Ki amounted to 23 nM.

For the compound `NC(=O)C1CCN(c2cnc3nnn(Cc4ccc5ncccc5c4)c3n2)C1` (stereo not shown) [Example 177, 1-[1-(quinolin-6-yl-methyl)-1H-[1,2,3]tri-azolo[4,5-b]pyra-zin-6-yl]pyrro-lidine-3-carboxamide], the Ki was 29 nM.

Turning to `Cc1cnc2nnn(C(C)c3ccc4c(c3)OCCO4)c2n1` (stereo not shown) [Example 180, 1-[1-(3,4-Dihydro-benzo[1,4]dioxin-6-yl)-eth-yl]-6-meth-yl-1H-[1,2,3]tri-azolo[4,5-b]pyrazine], the Ki was determined as 412 nM.

With `CC(c1ccc2c(c1)OCCO2)n1nnc2ncc(N3CC[C@@H](N)C3)nc21` (stereo partly drawn) [Example 181, (R)-1-{3-[1-(2,3-Dihydro-benzo[1,4]dioxin-6-yl)-eth-yl]-3H-[1,2,3]triaz-olo[4,5-b]pyra-zin-5-yl}-pyrro-lidin-3-ylamine], the Ki came out at 177 nM.

As for `CC(C)(O)c1cnc2nnn(Cc3ccc4ncccc4c3)c2n1` [Example 182, 2-(3-Quinolin-6-yl-methyl-3H-[1,2,3]tri-azolo[4,5-b]pyra-zin-5-yl)-pro-pan-2-ol], the inhibition constant Ki worked out at 857 nM.

Turning to `CC(N)c1cnc2nnn(Cc3ccc4ncccc4c3)c2n1` (stereo not shown) [Example 183, 1-(3-Quinolin-6-yl-methyl-3H-[1,2,3]tri-azolo[4,5-b]pyra-zin-5-yl)-ethylamine], the Ki worked out at 837 nM.

As to `CC(O)c1cnc2nnn(Cc3ccc4ncccc4c3)c2n1` (stereo not shown) [Example 184, 1-(3-Quinolin-6-yl-methyl-3H-[1,2,3]tri-azolo[4,5-b]pyra-zin-5-yl)-ethanol], the Ki came out at 231 nM.

On to `C[C@H](c1ccc2c(c1)OCCO2)n1nnc2ncc(-c3cnn(C)c3)nc21` [Example 185, 1-[(R)-1-(2,3-Dihydro-benzo[1,4]dioxin-6-yl)-eth-yl]-6-(1-meth-yl-1H-pyra-zol-4-yl)-1H-[1,2,3]tri-azolo[4,5-b]pyrazine], for which the Ki worked out at 98 nM.

Regarding `NC(=O)[C@H]1CCCN1c1cnc2nnn(Cc3ccc4ncccc4c3)c2n1` [Example 186, 1-[1-(quinolin-6-yl-methyl)-1H-[1,2,3]tri-azolo[4,5-b]pyra-zin-6-yl]-D-pro-linamide], the Ki stood at 564 nM.

Consider `CC(C)(CNc1cnc2nnn(Cc3ccc4ncccc4c3)c2n1)NC(=O)OC(C)(C)C` [Example 188, tert-butyl(1,1-di-methyl-2-{[1-(quino-lin-6-yl-methyl)-1H-[1,2,3]tri-azolo[4,5-b]pyra-zin-6-yl]ami-no}ethyl)carbamate], for which the Ki stood at 103 nM.

As to `NC(=O)C1(N)CCN(c2cnc3nnn(Cc4ccc5ncccc5c4)c3n2)C1` (stereo not shown) [Example 189], the Ki came out at 187 nM.

For `CC1(C)CN(c2cnc3nnn(Cc4ccc5ncccc5c4)c3n2)C(=O)N1` [Example 190, 4,4-dimethyl-1-[1-(quino-lin-6-yl-methyl)-1H-[1,2,3]tri-azolo[4,5-b]pyra-zin-6-yl]imida-zolidin-2-one], the Ki is 647 nM.

With `FC1CCN(C2CCN(c3cnc4nnn(Cc5ccc6ncccc6c5)c4n3)C2)CC1` (stereo not shown) [Example 191, 6-({6-[3-(4-fluoro-piperidin-1-yl)pyrro-lidin-1-yl]-1H-[1,2,3]tri-azolo[4,5-b]pyra-zin-1-yl}methyl)quinoline], the Ki was found to be 142 nM.

`COc1cnc2nnn(Cc3ccc4ncccc4c3)c2n1` [Example 193, 6-[(6-methoxy-1H-[1,2,3]tri-azolo[4,5-b]pyra-zin-1-yl)meth-yl]quinoline]: the Ki amounted to 108 nM.

Regarding `O=C(O)c1cnc2nnn(Cc3ccc4ncccc4c3)c2n1` [Example 194, 1-(quinolin-6-yl-methyl)-1H-[1,2,3]tri-azolo[4,5-b]pyra-zine-6-carboxylic acid], the Ki worked out at 811 nM.

Turning to `CNC(=O)c1cnc2nnn(Cc3ccc4ncccc4c3)c2n1` [Example 195, N-methyl-1-(quino-lin-6-yl-methyl)-1H-[1,2,3]tri-azolo[4,5-b]pyra-zine-6-carboxamide], the inhibitory constant (Ki) came to 117 nM.

Turning to `COC(=O)c1cnc2nnn(Cc3ccc4ncccc4c3)c2n1` [Example 196, methyl 1-(quino-lin-6-yl-methyl)-1H-[1,2,3]tri-azolo[4,5-b]pyra-zine-6-carboxylate], the inhibitory constant (Ki) was 174 nM.

Take `CC(=O)N[C@H]1CCN(c2cnc3nnn(Cc4ccc5ncccc5c4)c3n2)C1` [Example 198, N-{(3S)-1-[1-(quino-lin-6-yl-methyl)-1H-[1,2,3]tri-azolo[4,5-b]pyra-zin-6-yl]pyrro-lidin-3-yl}acetamide]: the Ki turned out to be 31 nM.

With `C[C@H]1COCCN1c1cnc2nnn(Cc3ccc4ncccc4c3)c2n1` [Example 199, 6-({6-[(3S)-3-methyl-morpholin-4-yl]-1H-[123]tri-azolo[45-b]pyra-zin-1-yl}methyl)quinoline], the Ki was 138 nM.

With `CC(C)(C)OC(=O)N[C@@H]1CCN(c2cnc3nnn(Cc4ccc5ncccc5c4)c3n2)C1` [Example 200, (R)-tert-butyl 1-(3-(quino-lin-6-yl-methyl)-3H-[1,2,3]tri-azolo[4,5-b]pyra-zin-5-yl)pyrrolidin-3-ylcarbamate], the Ki came out at 162 nM.

With `CC(C)(C)OC(=O)N1CCN(c2cnc3nnn(Cc4ccc5ncccc5c4)c3n2)CC1` [Example 201, tert-butyl 4-(3-(quino-lin-6-yl-methyl)-3H-[1,2,3]tri-azolo[4,5-b]pyra-zin-5-yl)pipe-razine-1-carboxylate], the Ki is 182 nM.

With `CC(C)(C)OC(=O)N[C@@H]1CCCN(c2cnc3nnn(Cc4ccc5ncccc5c4)c3n2)C1` [Example 202, (R)-tert-butyl 1-(3-(quino-lin-6-yl-methyl)-3H-[1,2,3]tri-azolo[4,5-b]pyra-zin-5-yl)pipe-ridin-3-ylcarbamate], the inhibition constant Ki was 620 nM.

On to `CC(C)(C)OC(=O)N[C@H]1CCCN(c2cnc3nnn(Cc4ccc5ncccc5c4)c3n2)C1` [Example 203, (S)-tert-butyl 1-(3-(quino-lin-6-yl-methyl)-3H-[1,2,3]tri-azolo[4,5-b]pyra-zin-5-yl)pipe-ridin-3-ylcarbamate], for which the inhibition constant Ki is 570 nM.

Consider `CN(CCO)[C@@H]1CCN(c2cnc3nnn(Cc4ccc5ncccc5c4)c3n2)C1` [Example 204, 2-(methyl{(3R)-1-[1-(quino-lin-6-yl-methyl)-1H-[1,2,3]tri-azolo[4,5-b]pyra-zin-6-yl]pyrro-lidin-3-yl}ami-no)ethanol. TFA salt], for which the Ki turned out to be 37 nM.

For `c1cnc2ccc(Cn3nnc4ncc(N5CC[C@@H](N6CCOCC6)C5)nc43)cc2c1` [Example 206, 6-({6-[(3R)-3-morpho-lin-4-ylpyrro-lidin-1-yl]-1H-[1,2,3]tri-azolo[4,5-b]pyra-zin-1-yl}meth-yl)quinoline. TFA salt], the inhibition constant Ki amounted to 22 nM.

Take `FC1(F)CCN([C@H]2CCN(c3cnc4nnn(Cc5ccc6ncccc6c5)c4n3)C2)CC1` [Example 207, 6-({6-[(3S)-3-(4,4-di-fluoropiperidin-1-yl)pyrro-lidin-1-yl]-1H-[1,2,3]tri-azolo[4,5-b]pyra-zin-1-yl}meth-yl)quinoline. TFA salt]: the Ki is 23 nM.

In the case of `FC1(F)CCN([C@@H]2CCN(c3cnc4nnn(Cc5ccc6ncccc6c5)c4n3)C2)CC1` [Example 208, 6-({6-[(3R)-3-(4,4-di-fluoropiperidin-1-yl)pyrro-lidin-1-yl]-1H-[1,2,3]tri-azolo[4,5-b]pyra-zin-1-yl}meth-yl)quinoline. TFA salt], the inhibition constant Ki is 156 nM.
